Data: patent publication US20240025924A1, “HETEROCYCLE SUBSTITUTED KETONE DERIVATIVE, AND COMPOSITION AND MEDICINAL USE THEREOF” (SHANGHAI HAIYAN PHARMACEUTICAL TECHNOLOGY CO., LTD., priority 2021, published 2024)

Legend:
SHP-2 enzyme = biological target: T1, SHP-2 enzyme (Homo sapiens, UniProt Q06124); experiment: Phosphatase activity assay (Homogeneous Full Length SHP-2 Assay Kit, DiFMUP substrate); type: biochemical; conditions: full length SHP-2 activated with 0.5 μM SHP-2 activating Peptide; 1 hour co-incubation; DiFMUP 50 μM, 30 min
T1 construct: Homogeneous Full Length SHP-2 Assay Kit (BPS Bioscience #79330); purchased BPS Bioscience 79330
T1 sequence (Q06124 1-593): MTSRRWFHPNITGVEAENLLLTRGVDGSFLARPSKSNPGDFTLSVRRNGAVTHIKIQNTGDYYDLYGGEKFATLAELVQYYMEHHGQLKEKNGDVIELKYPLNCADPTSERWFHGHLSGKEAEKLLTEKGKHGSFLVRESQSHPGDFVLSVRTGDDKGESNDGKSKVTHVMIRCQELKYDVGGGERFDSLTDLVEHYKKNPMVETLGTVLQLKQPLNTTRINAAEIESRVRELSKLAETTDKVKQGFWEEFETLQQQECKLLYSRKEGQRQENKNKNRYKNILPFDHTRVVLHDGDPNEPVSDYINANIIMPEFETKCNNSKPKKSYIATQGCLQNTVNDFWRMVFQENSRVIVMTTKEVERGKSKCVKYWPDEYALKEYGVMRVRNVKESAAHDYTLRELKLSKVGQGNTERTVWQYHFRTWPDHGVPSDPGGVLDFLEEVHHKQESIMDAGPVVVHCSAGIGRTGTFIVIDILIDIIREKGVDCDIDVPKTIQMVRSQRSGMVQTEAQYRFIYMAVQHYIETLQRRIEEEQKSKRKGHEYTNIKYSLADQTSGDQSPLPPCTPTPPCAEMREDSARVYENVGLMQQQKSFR
Method: IC50 values were assayed using Homogeneous Full Length SHP-2 Assay Kit (BPS Bioscience #79330), which uses 6,8-difluoro-4-methylumbelliferone phosphate (DiFMUP) as the reaction substrate. SHP2 enzyme solution (diluted to 0.04 ng/μL with 1*buffer) was mixed with 0.5 μM SHP-2 activating Peptide in a 1*buffer solution containing 2.5 mM DTT to activate PTP. At the same time, DMSO (0.1% (V/V)) or the compounds (concentration: 0.5 nM to 1 μM) were added, mixed and co-incubated for 1 hour. DiFMUP (50 μM, total reaction system volume of 20 μL) was added, and the reaction was started. After 30 min of incubation, the fluorescence intensity of the reaction system (excitation wavelength: 350 nm, emission wavelength: 460 nm) was measured by Tecan Infinite M1000.

MV-4-11 cell = experiment: Cell proliferation assay (Cell Titer-Glo); type: cell-based; conditions: Homo sapiens, MV4-11, 96 h, inhibition of MV-4-11 cell proliferation; Cell Titer-Glo on day 4
Method: MV 411 cells (20000 cells/well) were inoculated and cultured in 96 (Corning #3916) well plates, and the medium was 80 μL/well (IMDM with 10% fetal bovine serum (FBS), Gibco #10099-141C). After 24 hours of incubation, 20 μL of the compounds of the present invention configured to different concentrations (DMSO final concentration of 0.1% (V/V)) were added. On day 4, 60 μL of Cell Titer-Glo (Promega #G7558) was added to each well and mixed at 80 rpm, 25° C., 15 min, and the fluorescence values were detected by Victor X5 (PE).

hERG potassium channel = biological target: T2, hERG potassium channel (Homo sapiens, UniProt Q12809); experiment: Inhibition of hERG potassium channel current, manual patch clamp in CHO cells stably expressing hERG; type: cell-based; conditions: whole-cell patch clamp, room temperature
T2 construct: expressed in transfected cells; host or cells: CHO (Chinese hamster ovary) cells stably expressing hERG
T2 sequence (Q12809 whole entry): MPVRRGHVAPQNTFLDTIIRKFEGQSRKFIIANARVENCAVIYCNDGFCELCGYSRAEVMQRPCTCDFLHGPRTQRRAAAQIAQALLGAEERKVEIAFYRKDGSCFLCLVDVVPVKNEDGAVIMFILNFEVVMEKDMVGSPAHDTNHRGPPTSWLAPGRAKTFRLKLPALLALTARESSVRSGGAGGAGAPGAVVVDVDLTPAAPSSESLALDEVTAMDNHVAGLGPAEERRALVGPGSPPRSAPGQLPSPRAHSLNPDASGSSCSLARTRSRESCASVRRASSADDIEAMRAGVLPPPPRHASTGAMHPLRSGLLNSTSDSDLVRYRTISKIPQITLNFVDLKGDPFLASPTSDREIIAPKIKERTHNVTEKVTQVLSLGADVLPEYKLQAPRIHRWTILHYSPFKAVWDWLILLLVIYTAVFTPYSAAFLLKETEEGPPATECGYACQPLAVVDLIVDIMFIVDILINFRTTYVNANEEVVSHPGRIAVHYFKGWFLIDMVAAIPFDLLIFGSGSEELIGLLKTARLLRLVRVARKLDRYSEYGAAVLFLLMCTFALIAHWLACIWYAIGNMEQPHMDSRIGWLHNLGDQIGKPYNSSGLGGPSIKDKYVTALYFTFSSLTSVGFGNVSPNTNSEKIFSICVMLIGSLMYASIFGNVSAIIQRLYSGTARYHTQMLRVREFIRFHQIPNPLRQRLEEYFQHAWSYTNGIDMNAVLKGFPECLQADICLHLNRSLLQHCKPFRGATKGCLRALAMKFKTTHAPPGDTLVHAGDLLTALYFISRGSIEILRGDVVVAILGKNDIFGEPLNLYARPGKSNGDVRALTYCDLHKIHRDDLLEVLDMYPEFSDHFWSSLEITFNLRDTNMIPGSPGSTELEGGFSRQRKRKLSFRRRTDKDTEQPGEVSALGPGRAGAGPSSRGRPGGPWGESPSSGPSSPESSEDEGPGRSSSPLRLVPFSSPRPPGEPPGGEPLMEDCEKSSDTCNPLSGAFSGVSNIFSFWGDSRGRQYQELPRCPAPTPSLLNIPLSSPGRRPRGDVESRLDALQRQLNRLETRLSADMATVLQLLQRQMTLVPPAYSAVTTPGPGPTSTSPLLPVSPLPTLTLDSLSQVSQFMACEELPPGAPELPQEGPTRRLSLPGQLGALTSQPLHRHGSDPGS
Method: The electrophysiological manual patch clamp method was used to test the effect of the compounds on the current of hERG potassium channel (human Ether-a-go-go Related Gene potassium channel).
CHO cells stably expressing hERG were cultured in a cell Petri dish having a diameter of 35 mm, placed in an incubator at 37° C. and with 5% CO2, and passaged every 48 hours at a ratio of 1:5. The culture medium formula was: 90% F12 (Invitrogen), 10% fetal bovine serum (Gibco), 100 μg/mL G418 (Invitrogen), and 100 μg/mL Hygromycin B (Invitrogen). On the day of the test, the cell culture medium was sucked away, and the cells were washed with extracellular fluid once. Then 0.25% Trypsin-EDTA (Invitrogen) solution was added, and the cells was digested at room temperature for 3-5 min. The digestive fluid was sucked away, and the cells were resuspended with extracellular fluid, and transferred to the experimental dish for electrophysiological recording.
On the day of test, the compounds were prepared using DMSO into mother solution with concentration of 20 mM, and then serial dilution with DMSO was performed three times, i.e., 10 μL of the solution was added to 20 μL of DMSO, then 10 μL of the serial diluted solution of the compounds in DMSO was added to 4990 μL of extracellular fluid, and 500 times of dilution was performed to obtain the final concentration to be tested.
The hERG potassium channel currents of CHO (Chinese hamster ovary) cells stably expressing hERG potassium channels were recorded using whole-cell patch clamp technique at room temperature. The glass microelectrodes were made from glass electrode blanks (BF150-86-10, Sutter) by pulling through a puller, and the tip resistance was about 2-5 MΩ after filling the electrode with the inner liquid. The glass microelectrodes could be connected to a patch clamp amplifier by inserting them into the amplifier probe. Clamp voltage and data recording were controlled and recorded by a computer using software pClamp 10 with a sampling frequency of 10 kHz and a filtering frequency of 2 kHz. After obtaining a whole-cell recording, the cell was clamped at −80 mV, and the step voltage inducing hERG potassium current (IhERG) was given a depolarizing voltage from −80 mV to +20 mV for 2 s, and repolarized to −50 mV for 1 s, then returning to −80 mV. This voltage stimulus was given every 10 s. After it is determined that the potassium hERG current was stable (for 1 min), the dosing process was initiated. The compounds were administered for at least 1 min at each tested concentration, and at least 2 cells (n≥2) were tested at each concentration.
Data analysis and processing were conducted using softwares pClamp 10, GraphPad Prism 5, and Excel. The degree of inhibitory activity of different compound concentrations on hERG potassium current (peak value of hERG tail current induced at −50 mV) was calculated using the following formula: Inhibition %=[1−(I/Io)]×100%. Among them, Inhibition % represents the percentage inhibition of the compound on hERG potassium current, and I and Io represent the amplitude of hERG potassium current after and before dosing, respectively.
IC50 of the compounds was calculated using software GraphPad Prism 5 by fitting the following equation: Y=Bottom+(Top−Bottom)/(1+10^(Log IC50−X)*HillSlope). Among them, X is the Log value of the detection concentration of test material, Y is the inhibition percentage at the corresponding concentration, and Bottom and Top are the minimum and maximum inhibition percentages, respectively.

[1] = tested on: human esophageal squamous carcinoma cell line KYSE-520; experiment: KYSE-520 subcutaneous transplantation tumor model; type: in vivo; conditions: KYSE-520 subcutaneous tumor, female Balb/C nude mice, 10 mg/kg, PO, QD
Method: The human esophageal squamous carcinoma cell line KYSE-520 was cultured in RPMI 1640 containing 10% fetal bovine serum placed in a 37° C., 5% CO2 sterile incubator. The cells were passaged 2-3 times per week, digested with 0.25% trypsin-EDTA. After terminating the digestion with the above complete medium, the system was centrifugated at 1000 rpm for 5 min. The supernatant was discarded, and the cells were resuspended and passaged at a ratio of 1:3-1:5. Cells in logarithmic phase were collected, resuspended in serum-free RPMI 1640, counted and adjusted to the appropriate density.
KYSE-520 cells (3×10^6 cells/mouse) were inoculated into the right ventral dorsum of approximately 6- to 8-week-old female Balb/C nude mice. Then the tumors grew to an average volume of about 200 mm^3, the tumors were randomly grouped according to the tumor volume and body weight (n=8-10). Administration was started on the day of grouping and was performed once daily, defining the day of grouping as day 0. Tumor diameters were measured twice a week with vernier calipers, and tumor volume was calculated by the formula TV (mm^3)=0.5×a×b^2, with a and b representing the long and short diameters (in mm) of the tumors, respectively. When the average tumor volume of the control group was about 800 mm^3, the experiment was terminated. The tumor tissues were isolated and weighed to calculate the tumor weight proliferation rate with T/Cweight %=TWT/TWC %, and TWT and TWC represent the tumor weight of the administered group and the vehicle control group, respectively.

SMILES	IC50 (SHP-2 enzyme) [nM]	IC50 (MV-4-11 cell) [nM]	IC50 (hERG potassium channel) [nM]	T/Cweight (tumor weight proliferation rate) [1] [%]
[2H]C1([2H])CN(C(=O)c2ncc(N3CCC4(CC3)Cc3ccccc3C4N)nc2N)Cc2sc(N)nc21 (stereo not shown) [Compound 108]	3	8	> 30000	–
Nc1nc2c(s1)CN(C(=O)c1ncc(N3CCC4(CC3)Cc3ccccc3[C@H]4N)nc1N)CC2(F)F [Compound 63]	3	< 5	> 30000	28.94
COc1ccc2c(c1)C(N)C1(CCN(c3cnc(C(=O)N4Cc5sc(N)nc5C(F)(F)C4)c(N)n3)CC1)C2 (stereo not shown) [Compound 125]	10	–	> 30000	–
Nc1nc(N2CCC3(CC2)Cc2cc(F)ccc2C3N)nnc1C(=O)N1CCCn2nccc21 (stereo not shown) [Compound 59]	6	253	> 30000	–
COc1ccc2c(c1)C(N)C1(CCN(c3cnc(C(=O)N4CCc5nc(N)sc5C4)c(N)n3)CC1)C2 (stereo not shown) [Compound 82]	4	25	> 30000	–
Nc1nc2c(s1)CN(C(=O)c1ncc(N3CCC4(CC3)Cc3cc(F)ccc3C4N)nc1N)CC2(F)F (stereo not shown) [Compound 114]	7	7	> 30000	39.69
Nc1ccc2c(n1)CCN2C(=O)c1ncc(N2CCC3(CC2)Cc2ccccc2C3N)nc1N (stereo not shown) [Compound 60]	4	46	–	44.62
[2H]C1([2H])CN(C(=O)c2ncc(N3CCC4(CC3)Cc3ccc(OC)cc3C4N)nc2N)Cc2sc(N)nc21 (stereo not shown) [Compound 70]	–	25	> 30000	35.04
Nc1nc2c(s1)CN(C(=O)c1cnc(N3CCC4(CC3)Cc3ccccc3C4N)c(CO)n1)CC2(F)F (stereo not shown) [Compound 126]	6	–	> 30000	–
Cc1nc(C(=O)N2CCc3nc(N)ccc32)c(N)nc1N1CCC2(CC1)Cc1ccccc1C2N (stereo not shown) [Compound 100]	7	51	–	–
Cc1nc(C(=O)N2CCCn3nccc32)c(N)nc1N1CCC2(CC1)Cc1ccc(F)cc1C2N (stereo not shown) [Compound 27]	5	98	–	–
